The test system of assay [1] is bovine erythrocytes. Description: Radiolabelled peptide bovine erythrocyte binding assay (initial screen). The protocol: Peptide selection was based on the degree of conservation and the presence of functionally constricted regions found throughout B. bovis ama-1 gene. Twelve peptides were synthesised using the tert-butoxycarbonyl (t-Boc) strategy and solid-phase synthesis methodology. Cysteine residues were replaced by serine residue to avoid oxidation; a tyrosine residue was added to peptides lacking one in their native sequences to enable radiolabelling. The peptides were analysed using reversed-phase high-performance liquid chromatography (RP-HPLC) and MALDI-TOF mass spectrometry (Bruker Daltonics) after having been cleaved by the low–high hydrogen fluoride technique. Every peptide (10 μL) diluted at 1mg/mL in 4-(2-hydroxyethyl)-1-piperazineethanesulphonic acid buffered saline (HBS) was individually radiolabelled for 15 min using 3 μL Na^125I (100 mCi/mL; ARC) and 15 μL chloramine T (2.75 mg/mL). […] A gamma counter (Packard Cobra II) was used for measuring/quantifying single samples’ radioactivity.
(§1) The assays for every B. bovis AMA-1-derived synthetic peptide binding to bovine erythrocytes were carried out as described for P. falciparum, with some modifications. […] HABP bovine erythrocyte binding selection criteria were determined according to that established for P. falciparum. […]

Assay [2] concerns the target bovine RBCs. Briefly: Saturation assay of radiolabelled HABPs. It counts as binding. The note with it: saturation analysis; 7.5 × 10^7 RBCs, radiolabelled HABP 0–6000 nM, ± unlabelled peptide ~26 μM, 90 min at RT, 1:1 interaction model. The protocol:
Modified binding assays were carried out to determine kinetic constants associated with B. bovis AMA-1 HABP binding interaction with bovine RBCs. Briefly, 7.5 × 10^7 RBCs were incubated with a wide range of concentrations of each radiolabelled HABP (0–6000 nM) in the absence or presence of unlabelled peptide (~26 μM) at final 245 μL volume. Samples were incubated for 90 min at RT and then washed twice with HBS before measuring cell-associated radioactivity on a gamma counter. Equilibrium dissociation constants (kD), equivalent to the ligand concentration (moles/litre) occupying half of the receptors, were calculated by equilibrium phase curve (using a 1:1 interaction model). Hill coefficients (nH) were calculated by taking saturation results; positive cooperativity was assumed if nH had values higher than 1 which could have been the result of a binding site’s increased affinity due to a ligand’s previous binding to another site. Conversely, nH values lower than 1 would have indicated negative cooperativity (also called antagonism) and the first ligand molecule’s binding would have reduced the probability of a second molecule binding.

Assay [3] has as its system bovine erythrocyte membrane receptor. Briefly: Cross-linking assay (BS3, SDS-PAGE, autoradiography). It counts as binding. The note with it: autoradiogram, Figure 2c. The protocol:
Cross-linking assays were used in triplicate for evaluating B. bovis AMA-1 interaction with any membrane receptor. The assay consisted of incubating radiolabelled peptide with 7.5 × 10^7 bovine erythrocytes (v/v) at RT for 2 h at 4 rpm. A competition assay was used as control using an excess of non-radiolabelled peptide. The mixture was incubated for two hours at RT with 0.4 µg/mL bis(sulphosuccinimidyl) suberate (BS3) and then washed thrice with HBS. The cells were then lysed in 30 µL lysis buffer (15 µL buffer A (50 mM Tris-HCl, 100 mM NaCl and 0.1 mM EDTA) and 15 µL buffer B (0.5 M Tris-HCl, 10% SDS (w/v), 25% glycerol, 0.5% (w/v) bromophenol blue and […] β-mercaptoethanol, pH 6.8)) and spun at 14,000× g for 10 min. SDS-PAGE was used for separating the proteins and radioactivity signals were observed by autoradiography. Radiolabelled peptide 43437 (1 µM) binding competition assay involved using different non-radiolabelled peptide 42438 concentrations (0–160 µM).

Assay [4] concerns trypsin-, chymotrypsin-, and neuraminidase-treated bovine erythrocytes. Briefly: Binding assay with enzyme-treated erythrocytes. The following applies: 37 °C, 1h 30 min, untreated RBC as control, SD below 5%. The protocol:
A blood sample was obtained by jugular venepuncture from a clinically healthy Normande 18month-old bull and collected in anticoagulant tubes. The animal was properly restrained/fastened and then its head was secured by a strap and rope. After locating the external jugular vein and applying pressure, the area was disinfected with ethanol for inserting the needle at a 30° angle and 20 mL blood samples were collected in tubes containing sodium citrate using the closed system. The above procedures and animal maintenance and handling were carried out at the Remanso farm, according to guidelines for the care of large animals established by Universidad de Ciencias Aplicadas y Ambientales (U.D.C.A)’s ethics committee (regulated by agreement No. 285/2008) using the protocol described in the minute 201901. The collected blood was washed thrice with HBS (1:1 ratio) to eliminate the sera and the leucocyte layer by spinning at 1600× g for 5 min for each run. A 60% erythrocyte solution was incubated at 37 °C for 1h 30 min with trypsin (1 mg/mL), chymotrypsin (1 mg/mL) and neuraminidase (100 μU/mL). After three washes using 250× g for 3 min, 4 × 10^5 erythrocytes were incubated with 5 μM […] at 37 °C for 45 min in the dark. An assay was carried out with erythrocytes treated at 37 °C for 30 min or with 0.05% or 0.005% triton X-100 for 15 min at room temperature (RT) for using them as cell lysis controls. A FACSC Canto II cytometer (BD) was used for determining cell viability by analysing 100,000 events.
as §1

Assay [5] addresses receptor on bovine erythrocytes having an apparent 75 kDa molecular weight (bovine (endogenous in bovine erythrocytes)). Briefly: radioligand binding; saturation: 7.5 x 10^7 bovine erythrocytes, 125I-peptide 0-6000 nM without or with ~26 μM unlabelled peptide, 245 μL, 90 min at RT, HBS washes; 1:1 model, Hill plot.
Assay [6] has the same target. Briefly: radioligand binding; as the screen but on erythrocytes treated beforehand with trypsin (1 mg/mL), chymotrypsin (1 mg/mL) or neuraminidase (100 μU/mL); 1 h at 37 °C without shaking; untreated erythrocytes as control.

Ends that are not written are not given here.

Turning to RGVGMNWATYDKDSG [^395R-G^409], in assay [1] (radiolabelled peptide-cell interaction assay, Figure 1b), the “interaction with bovine erythrocytes (binding activity, in words)” value is “did not interact with bovine erythrocytes”.

Molecule CPMHPVRDAIFGKWSGGSCV [compound 42443] showed a Kd in assay [2] of 2400 nM. Further, the “intensity of cross-linking interaction with the receptor” value in assay [3] is given as “significantly less intense”. Besides, the “specific binding slope (binding activity)” value in assay [1] (7.5 × 10^7 normal cells, 2 h at RT, radiolabelled peptide 20–200 nM, absence or presence of non-radiolabelled peptide 20 μM, 200 μL, triplicate, HABP if slope ≥0.01 (1%)) is listed as above 0.01. In addition, in assay [4] (erythrocytes treated with chymotrypsin 1 mg/mL), the “reduction of binding with chymotrypsin-treated erythrocytes” value is reported as 46%. For the same molecule, in assay [4] (erythrocytes treated with neuraminidase 100 μU/mL), the “reduction of binding with neuraminidase-treated erythrocytes” value stood at 42%. The “reduction of binding with trypsin-treated erythrocytes” value in assay [4] (erythrocytes treated with trypsin 1 mg/mL) is reported as “a lesser effect”.

Turning to GYESVGSKSYRMPVGKSPVV (also: 125I radio-iodination in tracer use, site not given here) [B. bovis AMA-1 Domain I-derived peptide 42438], the Kd in assay [5] is 1300 nM. In assay [6], the percent reduction of binding, chymotrypsin-treated against untreated erythrocytes came out at 66%.

In the case of YMQKFDIPRNHGSGIYVDLG (also: 125I radio-iodination, site not given here) [B. bovis AMA-1 Domain I-derived peptide 42437], the Kd in assay [5] was determined as 1100 nM. In assay [6], the percent reduction of binding, chymotrypsin-treated against untreated erythrocytes was determined as 58%; the percent reduction of binding, neuraminidase-treated against untreated erythrocytes is 36%; the percent reduction of binding, trypsin-treated against untreated erythrocytes came out at 31%.

The values above are taken from article PMC7828228, “Babesia Bovis Ligand-Receptor Interaction: AMA-1 Contains Small Regions Governing Bovine Erythrocyte Binding” (International Journal of Molecular Sciences, 2021).
